These results are taken from patent publication US7413747B2, “Transdermal therapeutic system for treating Parkinsonism” (LTS Lohmann Therapie-Systeme AG, priority 1998, dated 2008).

Series [1] can be described thus: Solubility of the active substance in polyacrylate adhesives. Type of series: physicochemical. The settings on record: polyacrylate adhesive matrix; ambient temperature. The text has this:
(§1) The transdermal therapeutic system according to this invention, of the kind mentioned at the beginning and developed in accordance with the above, is essentially characterized by a matrix on the basis of an acrylate-based or silicone-based non-aqueous polymer adhesive system having a solubility for the free D2-agonist base (−)-5,6,7,8-tetrahydro-6-[propyl-[2-(2-thienyl)ethyl]amino]-1-naphthalenol of >5% (w/w), which matrix is substantially free of inorganic silicate particulates. The solubility is determined at ambient temperature.
In systems wherein the active substance is only partially dissolved the concentration of the dissolved active substance is equal to the saturation concentration and thus has the maximum thermodynamic activity under these conditions. In general, it is, above all, the kind and quantity of the free functional groups in the adhesive which are important for the dissolving capacity of the polyacrylate adhesives. […] Such a system must therefore contain the active substance in a concentration of at least 10% (w/w) in order to come sufficiently near to the maximal thermodynamic activity. For the hydrochloride of (−)-5,6,7,8-tetrahydro-6-[propyl-[2-(2-thienyl)ethyl]amino]-1-naphthalenol the solubility in polyacrylates having 5-10% (w/w) is much lower, so that in such systems the active substance is preferably only partially dissolved.

Series [2] is described as follows: Solubility (saturation capacity) of the active substance in silicone adhesives. It is filed as physicochemical. Particulars: for saturation capacity in silicone adhesives: silicone adhesive without solubility-increasing additive.
Text: as §1
This is sufficient to dissolve 10 mg active substance in a 20 cm^2 large patch having a coat weight of the matrix of 50 g/m^2. Since with transdermal patch systems one must always assume that only about 50% of the active substance employed will be available during the period of application, given a daily dose in the range of 1-10 mg of the active substance a plaster size of between 2 and 40 cm^2 can be expected to be sufficient to achieve therapeutic plasma levels.

The nature of series [3]: Permeation studies utilizing Franz diffusion cells and human epidermis. It is filed as in vitro ADME. The settings on record: skin, due to hydrophilic properties. From the text:
The finished plasters were used in permeation studies utilizing Franz diffusion cells and human epidermis. It will be seen that all plasters are capable of systemically providing a sufficient amount of active substance through the skin. […] It will also be seen that the silicone adhesive-based plasters, although having a considerably lower active substance content, deliver approximately the same quantity of active substance via the skin as the systems based on polyacrylate adhesives.

With `CCCN(CCc1cccs1)C1CCc2c(O)cccc2C1` (single isomer, unassigned; (-)) [(−)-5,6,7,8-tetrahydro-6-[propyl-[2-(2-thienyl)ethyl]amino]-1-naphthalenol], the “solubility in polyacrylate adhesives” value in series [1] is given as 15-35 % (w/w). Further, in series [2] (about 1.5-5% (w/w) of polyvinylpyrrolidone in the adhesive), the “solubility in amine-resistant silicone adhesive” value is given as 10-15 % (w/w). The “dissolving capacity for the free base in silicone adhesive matrices” value in series [2] (silicone adhesive admixed with a substance having increased solubility for the active substance (e.g. polyvinylpyrrolidone)) was “up to 40 % (w/w)”. In series [2], the “saturation capacity in silicone adhesives” value was “about 5 % (w/w)”.
Regarding `CCCN(CCc1cccs1)C1CCc2c(O)cccc2C1.Cl` (single isomer, unassigned; (-)) [(−)-5,6,7,8-tetrahydro-6-[propyl-[2-(2-thienyl)ethyl]amino]-1-naphthalenol hydrochloride], the “solubility in polyacrylate adhesives” value in series [1] is given as 5-10 % (w/w). Further, in series [2], the “saturation capacity in silicone adhesives” value was “practically insoluble”. Moreover, the “passing the barrier of the stratum corneum” value in series [3] is “only poorly”.
